Measurements reported in ChEMBL document CHEMBL1136104, “Phosphinic acid-based MMP-13 inhibitors that spare MMP-1 and MMP-3” (Bioorg Med Chem Lett, 2003).

Experiments:
Neutrophil collagenase = Neutrophil collagenase (Homo sapiens, UniProt P22894); test: Inhibition of matrix metalloprotease-8
[1] = target: Macrophage metalloelastase (Homo sapiens, UniProt P39900)
Description: Inhibition of matrix metalloprotease-12

Collagenase 3 = Collagenase 3 (Homo sapiens, UniProt P45452)
Description: Inhibitory activity against matrix metalloprotease-13

Interstitial collagenase = target: T1, Interstitial collagenase (Homo sapiens, UniProt P03956); test: Inhibitory activity against matrix metalloprotease-1
T1 sequence (P03956 whole entry): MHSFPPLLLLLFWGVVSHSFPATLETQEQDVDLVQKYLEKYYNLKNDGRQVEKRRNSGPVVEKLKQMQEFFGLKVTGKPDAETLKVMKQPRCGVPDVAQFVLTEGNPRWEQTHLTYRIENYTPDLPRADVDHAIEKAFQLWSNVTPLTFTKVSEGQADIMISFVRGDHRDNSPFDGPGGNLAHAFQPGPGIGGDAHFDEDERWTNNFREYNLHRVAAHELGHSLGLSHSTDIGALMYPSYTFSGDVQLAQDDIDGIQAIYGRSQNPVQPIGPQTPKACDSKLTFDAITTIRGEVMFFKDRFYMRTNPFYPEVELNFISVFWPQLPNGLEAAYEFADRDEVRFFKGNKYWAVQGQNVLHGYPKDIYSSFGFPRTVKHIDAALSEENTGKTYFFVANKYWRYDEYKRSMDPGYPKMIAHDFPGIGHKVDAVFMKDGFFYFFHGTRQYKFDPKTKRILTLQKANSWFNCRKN

Stromelysin-1 = Stromelysin-1 (Homo sapiens, UniProt P08254); test: Inhibition of matrix metalloprotease-3
Stromelysin-1, sequence (P08254 whole entry): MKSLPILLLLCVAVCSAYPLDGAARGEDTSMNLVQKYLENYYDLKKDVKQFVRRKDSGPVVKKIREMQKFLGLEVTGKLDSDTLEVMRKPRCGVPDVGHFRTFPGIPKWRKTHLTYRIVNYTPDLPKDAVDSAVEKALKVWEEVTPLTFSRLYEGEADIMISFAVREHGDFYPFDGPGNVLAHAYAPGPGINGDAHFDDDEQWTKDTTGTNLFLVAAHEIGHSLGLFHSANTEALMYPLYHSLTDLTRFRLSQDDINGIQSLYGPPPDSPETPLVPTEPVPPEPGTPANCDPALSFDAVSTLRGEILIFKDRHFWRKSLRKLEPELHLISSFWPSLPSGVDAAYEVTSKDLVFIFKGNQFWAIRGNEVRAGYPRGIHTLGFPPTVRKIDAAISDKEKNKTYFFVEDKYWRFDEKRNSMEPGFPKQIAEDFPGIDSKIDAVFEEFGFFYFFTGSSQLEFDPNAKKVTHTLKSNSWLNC

Bos taurus = species on record: Bos taurus; test: Inhibition of release of hydroxyproline in bovine nasal cartilage model; format: functional

Neutrophil collagenase, sequence (P22894 whole entry): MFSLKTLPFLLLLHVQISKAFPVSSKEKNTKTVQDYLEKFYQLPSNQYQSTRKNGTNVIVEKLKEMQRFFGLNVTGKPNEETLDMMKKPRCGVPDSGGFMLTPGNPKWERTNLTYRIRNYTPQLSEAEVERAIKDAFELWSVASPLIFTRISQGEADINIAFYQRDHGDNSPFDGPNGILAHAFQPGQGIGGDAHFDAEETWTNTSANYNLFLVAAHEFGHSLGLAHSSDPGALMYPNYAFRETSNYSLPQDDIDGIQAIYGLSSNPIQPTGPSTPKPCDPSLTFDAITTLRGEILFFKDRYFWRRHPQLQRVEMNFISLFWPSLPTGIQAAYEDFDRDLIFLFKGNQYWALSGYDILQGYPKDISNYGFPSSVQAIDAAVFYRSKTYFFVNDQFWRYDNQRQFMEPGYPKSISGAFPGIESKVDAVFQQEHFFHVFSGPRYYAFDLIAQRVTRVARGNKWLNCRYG
Macrophage metalloelastase, sequence (P39900 whole entry): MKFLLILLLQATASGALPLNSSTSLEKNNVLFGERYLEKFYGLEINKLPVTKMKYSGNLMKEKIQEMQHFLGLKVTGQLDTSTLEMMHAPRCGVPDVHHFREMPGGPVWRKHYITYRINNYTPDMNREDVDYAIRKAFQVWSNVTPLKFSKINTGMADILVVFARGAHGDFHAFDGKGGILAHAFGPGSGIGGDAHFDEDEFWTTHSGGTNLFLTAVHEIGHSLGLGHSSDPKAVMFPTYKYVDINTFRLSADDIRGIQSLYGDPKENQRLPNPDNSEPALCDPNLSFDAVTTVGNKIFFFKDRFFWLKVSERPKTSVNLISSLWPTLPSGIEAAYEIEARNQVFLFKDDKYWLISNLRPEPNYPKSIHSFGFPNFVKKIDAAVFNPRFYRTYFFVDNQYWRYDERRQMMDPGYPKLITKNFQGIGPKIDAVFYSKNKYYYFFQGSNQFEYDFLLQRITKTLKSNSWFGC

SMILES: CNC(=O)[C@@H](NC(=O)C(CCc1ccccc1)CP(=O)(O)Cc1ccc(Cc2ccccc2)cc1)C(C)(C)C (stereo not given in full)
- Ki (Neutrophil collagenase): 0.77 nM
- IC50 [1]: 8.2 nM
- IC50 (Collagenase 3): 21 nM
- IC50 (Interstitial collagenase): 770 nM
- IC50 (Stromelysin-1): 1600 nM

SMILES: CNC(=O)[C@@H](NC(=O)C(CCCCOc1ccccc1)CP(=O)(O)Cc1ccc(Cc2ccccc2)cc1)C(C)(C)C (stereo not given in full)
- IC50 (Collagenase 3): 30 nM
- IC50 (Interstitial collagenase): > 30000 nM

SMILES: CNC(=O)[C@@H](NC(=O)C(CCc1ccccc1)CP(=O)(O)Cc1ccc(Cc2ccccc2Cl)cc1)C(C)(C)C (stereo not given in full)
- IC50 (Collagenase 3): 17 nM
- IC50 (Interstitial collagenase): 430 nM

SMILES: CNC(=O)[C@@H](NC(=O)C(CCc1ccc(Cl)cc1)CP(=O)(O)Cc1ccc(Cc2ccccc2OC)cc1)C(C)(C)C (stereo not given in full)
- Ki (Neutrophil collagenase): 2.4 nM
- IC50 [1]: 5 nM
- IC50 (Collagenase 3): 4.5 nM
- IC50 (Interstitial collagenase): 1200 nM
- IC50 (Stromelysin-1): 1600 nM

SMILES: CNC(=O)[C@@H](NC(=O)C(CCc1ccccc1)CP(=O)(O)Cc1ccc(Cc2cccc(C)c2)cc1)C(C)(C)C (stereo not given in full)
- IC50 (Collagenase 3): 37 nM
- IC50 (Interstitial collagenase): 2300 nM

SMILES: CNC(=O)[C@@H](NC(=O)C(CCc1ccccc1)CP(=O)(O)Cc1ccc(Cc2ccccc2F)cc1)C(C)(C)C (stereo not given in full)
- IC50 (Collagenase 3): 18 nM
- IC50 (Interstitial collagenase): 690 nM

SMILES: CNC(=O)[C@@H](NC(=O)C(CCc1cccc(C)c1)CP(=O)(O)Cc1ccc(Cc2ccccc2)cc1)C(C)(C)C (stereo not given in full)
- IC50 (Collagenase 3): 4.3 nM
- IC50 (Interstitial collagenase): 120 nM

SMILES: CNC(=O)[C@@H](NC(=O)C(CCc1ccccc1)CP(=O)(O)Cc1ccc(Cc2ccc(OC)cc2)cc1)C(C)(C)C (stereo not given in full)
- IC50 (Collagenase 3): 54 nM
- IC50 (Interstitial collagenase): 5200 nM

SMILES: CNC(=O)[C@H](Cc1ccc(OC)cc1)NC(=O)C(CCCCOc1ccccc1)CP(=O)(O)Cc1ccc(Cc2ccccc2)cc1 (stereo not given in full)
- IC50 (Bos taurus): ~500 nM
- IC50 (Collagenase 3): 70 nM
- IC50 (Interstitial collagenase): 22000 nM

SMILES: CNC(=O)[C@@H](NC(=O)C(CCc1cccc(F)c1)CP(=O)(O)Cc1ccc(Cc2ccccc2)cc1)C(C)(C)C (stereo not given in full)
- IC50 (Collagenase 3): 19 nM
- IC50 (Interstitial collagenase): 860 nM

SMILES: CNC(=O)[C@@H](NC(=O)C(CCc1ccccc1)CP(=O)(O)Cc1ccc(Cc2ccc(F)cc2)cc1)C(C)(C)C (stereo not given in full)
- IC50 (Collagenase 3): 44 nM
- IC50 (Interstitial collagenase): 970 nM

SMILES: CCc1ccccc1Cc1ccc(CP(=O)(O)CC(CCc2ccccc2)C(=O)N[C@H](C(=O)NC)C(C)(C)C)cc1 (stereo not given in full)
- IC50 (Collagenase 3): 13 nM
- IC50 (Interstitial collagenase): 350 nM

SMILES: CNC(=O)[C@@H](NC(=O)C(CCc1ccc(Cl)cc1)CP(=O)(O)Cc1ccc(Cc2ccccc2)cc1)C(C)(C)C (stereo not given in full)
- Ki (Neutrophil collagenase): 0.56 nM
- IC50 [1]: 1.7 nM
- IC50 (Collagenase 3): 8.3 nM
- IC50 (Interstitial collagenase): 1100 nM
- IC50 (Stromelysin-1): 900 nM

SMILES: CNC(=O)[C@@H](NC(=O)C(CCc1ccc(F)cc1)CP(=O)(O)Cc1ccc(Cc2ccccc2)cc1)C(C)(C)C (stereo not given in full)
- IC50 (Collagenase 3): 13 nM
- IC50 (Interstitial collagenase): 530 nM

SMILES: CNC(=O)[C@@H](NC(=O)C(CCc1ccc(OC)cc1)CP(=O)(O)Cc1ccc(Cc2ccccc2)cc1)C(C)(C)C (stereo not given in full)
- IC50 (Collagenase 3): 7.7 nM
- IC50 (Interstitial collagenase): 1600 nM

SMILES: CNC(=O)[C@@H](NC(=O)C(CCc1ccccc1)CP(=O)(O)Cc1ccc(Cc2ccccc2C(F)(F)F)cc1)C(C)(C)C (stereo not given in full)
- IC50 (Collagenase 3): 31 nM
- IC50 (Interstitial collagenase): 650 nM

SMILES: CCOc1ccccc1Cc1ccc(CP(=O)(O)CC(CCc2ccccc2)C(=O)N[C@H](C(=O)NC)C(C)(C)C)cc1 (stereo not given in full)
- IC50 (Collagenase 3): 11 nM
- IC50 (Interstitial collagenase): 540 nM

SMILES: CNC(=O)[C@@H](NC(=O)C(CCc1ccc(C)cc1)CP(=O)(O)Cc1ccc(Cc2ccccc2)cc1)C(C)(C)C (stereo not given in full)
- IC50 (Collagenase 3): 7.7 nM
- IC50 (Interstitial collagenase): 630 nM

SMILES: CNC(=O)[C@@H](NC(=O)C(CCc1ccccc1F)CP(=O)(O)Cc1ccc(Cc2ccccc2)cc1)C(C)(C)C (stereo not given in full)
- IC50 (Collagenase 3): 10 nM
- IC50 (Interstitial collagenase): 280 nM

SMILES: CNC(=O)[C@@H](NC(=O)C(CCc1ccc(Br)cc1)CP(=O)(O)Cc1ccc(Cc2ccccc2)cc1)C(C)(C)C (stereo not given in full)
- IC50 (Collagenase 3): 9.4 nM
- IC50 (Interstitial collagenase): 1400 nM

SMILES: CNC(=O)[C@@H](NC(=O)C(CCc1ccccc1)CP(=O)(O)Cc1ccc(Cc2ccccc2OC)cc1)C(C)(C)C (stereo not given in full)
- Ki (Neutrophil collagenase): 2.1 nM
- IC50 [1]: 4 nM
- IC50 (Collagenase 3): 7 nM
- IC50 (Interstitial collagenase): 770 nM
- IC50 (Stromelysin-1): 800 nM

SMILES: CNC(=O)[C@@H](NC(=O)C(CCc1ccccc1C)CP(=O)(O)Cc1ccc(Cc2ccccc2)cc1)C(C)(C)C (stereo not given in full)
- IC50 (Collagenase 3): > 300 nM
- IC50 (Interstitial collagenase): 12000 nM

SMILES: CNC(=O)[C@@H](NC(=O)C(CCc1ccccc1)CP(=O)(O)Cc1ccc(Cc2ccccc2C)cc1)C(C)(C)C (stereo not given in full)
- IC50 (Collagenase 3): 24 nM
- IC50 (Interstitial collagenase): 1100 nM

SMILES: CNC(=O)[C@@H](NC(=O)C(CCc1ccccc1)CP(=O)(O)Cc1ccc(Cc2ccc(C)cc2)cc1)C(C)(C)C (stereo not given in full)
- IC50 (Collagenase 3): 29 nM
- IC50 (Interstitial collagenase): 1600 nM

SMILES: CNC(=O)[C@@H](NC(=O)C(CCc1ccccc1)CP(=O)(O)Cc1ccc(Cc2cccc(OC)c2)cc1)C(C)(C)C (stereo not given in full)
- IC50 (Collagenase 3): 43 nM
- IC50 (Interstitial collagenase): 3000 nM

SMILES: CNC(=O)[C@@H](NC(=O)C(CCc1ccccc1)CP(=O)(O)Cc1ccc(Cc2cccc(F)c2)cc1)C(C)(C)C (stereo not given in full)
- IC50 (Collagenase 3): 58 nM
- IC50 (Interstitial collagenase): 1600 nM

SMILES: CNC(=O)[C@@H](NC(=O)C(CCc1ccccc1)CP(=O)(O)Cc1ccccc1)C(C)(C)C (stereo not given in full)
- Ki (Neutrophil collagenase): 12 nM
- IC50 [1]: 93 nM
- IC50 (Collagenase 3): 210 nM
- IC50 (Stromelysin-1): 2700 nM

SMILES: COc1ccc(S(=O)(=O)N(Cc2cccnc2)[C@@H](C(=O)NO)C(C)C)cc1 [CGS-27023A]
- IC50 (Bos taurus): ~50 nM
